Experimental data from PubChem BioAssay (NCI).
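Cultured in 96-well plates, cells were exposed to test compound for 48 hours across five concentrations. At the TGI there is no net growth.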

How the values were obtained:
Assay in all cases: NCI anticancer screen, dose series, 48 h
OVCAR-5 ovarian = tested on: OVCAR-5 ovarian
KM20L2 colon = tested on: KM20L2 colon
RXF 393 renal = tested on: RXF 393 renal
COLO 205 colon = tested on: COLO 205 colon
SF-539 CNS = tested on: SF-539 CNS
NCI-H460 lung = tested on: NCI-H460 lung
NCI-H226 lung = tested on: NCI-H226 lung
UACC-62 melanoma = tested on: UACC-62 melanoma
MALME-3M melanoma = tested on: MALME-3M melanoma
CCRF-CEM leukemia = tested on: CCRF-CEM leukemia
SK-MEL-28 melanoma = tested on: SK-MEL-28 melanoma
UACC-257 melanoma = tested on: UACC-257 melanoma
OVCAR-8 ovarian = tested on: OVCAR-8 ovarian
OVCAR-3 ovarian = tested on: OVCAR-3 ovarian
SNB-75 CNS = tested on: SNB-75 CNS
HCT-116 colon = tested on: HCT-116 colon
SN12C renal = tested on: SN12C renal
OVCAR-4 ovarian = tested on: OVCAR-4 ovarian
A498 renal = tested on: A498 renal
HCC-2998 colon = tested on: HCC-2998 colon
HCT-15 colon = tested on: HCT-15 colon
RPMI-8226 leukemia = tested on: RPMI-8226 leukemia
DMS 273 small cell lung = tested on: DMS 273 small cell lung
SNB-19 CNS = tested on: SNB-19 CNS
ACHN renal = tested on: ACHN renal
MOLT-4 leukemia = tested on: MOLT-4 leukemia
HT29 colon = tested on: HT29 colon
DLD-1 colon = tested on: DLD-1 colon
M14 melanoma = tested on: M14 melanoma
HOP-62 NSCLC = tested on: HOP-62 NSCLC
HOP-18 NSCLC = tested on: HOP-18 NSCLC
LXFL 529 NSCLC = tested on: LXFL 529 NSCLC
SK-MEL-5 melanoma = tested on: SK-MEL-5 melanoma
SR leukemia = tested on: SR leukemia
SW-620 colon = tested on: SW-620 colon
M19-MEL melanoma = tested on: M19-MEL melanoma
TK-10 renal = tested on: TK-10 renal
DMS 114 small cell lung = tested on: DMS 114 small cell lung
NCI-H522 lung = tested on: NCI-H522 lung
XF 498 CNS = tested on: XF 498 CNS
K-562 leukemia = tested on: K-562 leukemia
LOX IMVI melanoma = tested on: LOX IMVI melanoma
IGROV1 ovarian = tested on: IGROV1 ovarian
SK-MEL-2 melanoma = tested on: SK-MEL-2 melanoma
A549 NSCLC = tested on: A549 NSCLC
786-0 renal = tested on: 786-0 renal
SF-295 CNS = tested on: SF-295 CNS
KM12 colon = tested on: KM12 colon
UO-31 renal = tested on: UO-31 renal
SF-268 CNS = tested on: SF-268 CNS
U251 CNS = tested on: U251 CNS
CAKI-1 renal = tested on: CAKI-1 renal
SNB-78 CNS = tested on: SNB-78 CNS
HL-60(TB) leukemia = tested on: HL-60(TB) leukemia
SK-OV-3 ovarian = tested on: SK-OV-3 ovarian
EKVX NSCLC = tested on: EKVX NSCLC
HOP-92 NSCLC = tested on: HOP-92 NSCLC
NCI-H23 lung = tested on: NCI-H23 lung
RXF-631 renal = tested on: RXF-631 renal

CCCCCCCCCCCC(=O)OCC1OC(OC)C(NC(=O)N(CCCl)N=O)C(O)C1O (configuration not stated)
TGI (OVCAR-5 ovarian): 57.7 µM
TGI (KM20L2 colon): 36.8 µM
TGI (RXF 393 renal): 26.4 µM
TGI (COLO 205 colon): 59 µM
TGI (SF-539 CNS): 14.8 µM
TGI (NCI-H460 lung): 20.5 µM
TGI (NCI-H226 lung): 59.3 µM
TGI (UACC-62 melanoma): 15.7 µM
TGI (MALME-3M melanoma): 30.6 µM
TGI (CCRF-CEM leukemia): 13.8 µM
TGI (SK-MEL-28 melanoma): 35.6 µM
TGI (UACC-257 melanoma): 27.5 µM
TGI (OVCAR-8 ovarian): 41 µM
TGI (OVCAR-3 ovarian): 33.4 µM
TGI (SNB-75 CNS): 52.8 µM
TGI (HCT-116 colon): 29.2 µM
TGI (SN12C renal): 29.5 µM
TGI (OVCAR-4 ovarian): 37.6 µM
TGI (A498 renal): 35.7 µM
TGI (HCC-2998 colon): 33.2 µM
TGI (HCT-15 colon): 96.1 µM
TGI (RPMI-8226 leukemia): 29.6 µM
TGI (DMS 273 small cell lung): 30.6 µM
TGI (SNB-19 CNS): > 100 µM
TGI (ACHN renal): 35.6 µM
TGI (MOLT-4 leukemia): 16.1 µM
TGI (HT29 colon): 31.2 µM
TGI (DLD-1 colon): 52.3 µM
TGI (M14 melanoma): 24.5 µM
TGI (HOP-62 NSCLC): 42.9 µM
TGI (HOP-18 NSCLC): > 100 µM
TGI (LXFL 529 NSCLC): 26.4 µM
TGI (SK-MEL-5 melanoma): 29.9 µM
TGI (SR leukemia): 18.6 µM
TGI (SW-620 colon): 24.5 µM
TGI (M19-MEL melanoma): > 100 µM
TGI (TK-10 renal): 61 µM
TGI (DMS 114 small cell lung): 39 µM
TGI (NCI-H522 lung): 24.7 µM
TGI (XF 498 CNS): 27.6 µM
TGI (K-562 leukemia): 31.1 µM
TGI (LOX IMVI melanoma): 21.6 µM
TGI (IGROV1 ovarian): > 100 µM
TGI (SK-MEL-2 melanoma): 54.5 µM
TGI (A549 NSCLC): 36.8 µM
TGI (786-0 renal): 10.4 µM
TGI (SF-295 CNS): 20.8 µM
TGI (KM12 colon): 37.1 µM
TGI (UO-31 renal): 33.5 µM
TGI (SF-268 CNS): 16.4 µM
TGI (U251 CNS): 26.1 µM
TGI (CAKI-1 renal): > 100 µM

O=c1c2cc(Br)cc(Br)c2nc(CCCl)n1CCO
TGI (OVCAR-5 ovarian): > 100 µM
TGI (KM20L2 colon): > 100 µM
TGI (RXF 393 renal): > 100 µM
TGI (COLO 205 colon): > 100 µM
TGI (SF-539 CNS): > 100 µM
TGI (NCI-H460 lung): > 100 µM
TGI (NCI-H226 lung): > 100 µM
TGI (UACC-62 melanoma): > 100 µM
TGI (MALME-3M melanoma): > 100 µM
TGI (SNB-78 CNS): > 100 µM
TGI (CCRF-CEM leukemia): > 100 µM
TGI (SK-MEL-28 melanoma): > 100 µM
TGI (HL-60(TB) leukemia): > 100 µM
TGI (UACC-257 melanoma): > 100 µM
TGI (OVCAR-8 ovarian): > 100 µM
TGI (SK-OV-3 ovarian): > 100 µM
TGI (EKVX NSCLC): > 100 µM
TGI (OVCAR-3 ovarian): > 100 µM
TGI (SNB-75 CNS): 93.5 µM
TGI (HOP-92 NSCLC): > 100 µM
TGI (HCT-116 colon): > 100 µM
TGI (SN12C renal): > 100 µM
TGI (OVCAR-4 ovarian): > 100 µM
TGI (A498 renal): > 100 µM
TGI (HCC-2998 colon): > 100 µM
TGI (RPMI-8226 leukemia): > 100 µM
TGI (ACHN renal): > 100 µM
TGI (MOLT-4 leukemia): > 100 µM
TGI (HT29 colon): > 100 µM
TGI (DLD-1 colon): > 100 µM
TGI (M14 melanoma): > 100 µM
TGI (HOP-62 NSCLC): > 100 µM
TGI (NCI-H23 lung): > 100 µM
TGI (LXFL 529 NSCLC): > 100 µM
TGI (SK-MEL-5 melanoma): > 100 µM
TGI (SW-620 colon): > 100 µM
TGI (M19-MEL melanoma): > 100 µM
TGI (TK-10 renal): > 100 µM
TGI (DMS 114 small cell lung): > 100 µM
TGI (NCI-H522 lung): > 100 µM
TGI (XF 498 CNS): > 100 µM
TGI (RXF-631 renal): > 100 µM
TGI (K-562 leukemia): > 100 µM
TGI (LOX IMVI melanoma): > 100 µM
TGI (IGROV1 ovarian): > 100 µM
TGI (SK-MEL-2 melanoma): > 100 µM
TGI (A549 NSCLC): > 100 µM
TGI (786-0 renal): > 100 µM
TGI (SF-295 CNS): > 100 µM
TGI (KM12 colon): > 100 µM
TGI (UO-31 renal): > 100 µM
TGI (SF-268 CNS): > 100 µM
TGI (U251 CNS): > 100 µM
TGI (CAKI-1 renal): > 100 µM

O=C(Nc1c(Cl)cc([N+](=O)[O-])cc1Cl)C(=O)C(C1OC(=O)c2ccccc21)[N+](=O)[O-] (configuration not stated)
TGI (OVCAR-5 ovarian): > 100 µM
TGI (KM20L2 colon): > 100 µM
TGI (RXF 393 renal): > 100 µM
TGI (COLO 205 colon): > 100 µM
TGI (SF-539 CNS): > 100 µM
TGI (NCI-H460 lung): > 100 µM
TGI (NCI-H226 lung): > 100 µM
TGI (UACC-62 melanoma): > 100 µM
TGI (MALME-3M melanoma): > 100 µM
TGI (SNB-78 CNS): > 100 µM
TGI (CCRF-CEM leukemia): > 100 µM
TGI (SK-MEL-28 melanoma): > 100 µM
TGI (HL-60(TB) leukemia): > 100 µM
TGI (UACC-257 melanoma): > 100 µM
TGI (OVCAR-8 ovarian): > 100 µM
TGI (SK-OV-3 ovarian): > 100 µM
TGI (EKVX NSCLC): > 100 µM
TGI (OVCAR-3 ovarian): > 100 µM
TGI (SNB-75 CNS): > 100 µM
TGI (HOP-92 NSCLC): 99.1 µM
TGI (HCT-116 colon): > 100 µM
TGI (SN12C renal): > 100 µM
TGI (OVCAR-4 ovarian): > 100 µM
TGI (A498 renal): > 100 µM
TGI (HCC-2998 colon): > 100 µM
TGI (HCT-15 colon): > 100 µM
TGI (RPMI-8226 leukemia): > 100 µM
TGI (SNB-19 CNS): > 100 µM
TGI (ACHN renal): > 100 µM
TGI (MOLT-4 leukemia): > 100 µM
TGI (HT29 colon): > 100 µM
TGI (DLD-1 colon): > 100 µM
TGI (M14 melanoma): > 100 µM
TGI (HOP-62 NSCLC): > 100 µM
TGI (NCI-H23 lung): > 100 µM
TGI (LXFL 529 NSCLC): > 100 µM
TGI (SK-MEL-5 melanoma): > 100 µM
TGI (SR leukemia): > 100 µM
TGI (SW-620 colon): > 100 µM
TGI (M19-MEL melanoma): > 100 µM
TGI (TK-10 renal): > 100 µM
TGI (DMS 114 small cell lung): > 100 µM
TGI (XF 498 CNS): > 100 µM
TGI (RXF-631 renal): > 100 µM
TGI (K-562 leukemia): > 100 µM
TGI (LOX IMVI melanoma): > 100 µM
TGI (IGROV1 ovarian): > 100 µM
TGI (SK-MEL-2 melanoma): > 100 µM
TGI (A549 NSCLC): > 100 µM
TGI (786-0 renal): > 100 µM
TGI (SF-295 CNS): > 100 µM
TGI (KM12 colon): > 100 µM
TGI (UO-31 renal): > 100 µM
TGI (SF-268 CNS): > 100 µM
TGI (U251 CNS): > 100 µM
TGI (CAKI-1 renal): > 100 µM
